The values below come from patent publication US20110059154A1, “CCR5 ANTAGONISTS AS PROPHYLACTICS FOR PREVENTING HIV INFECTION AND METHODS OF INHIBITING TRANSMISSION OF SAME” (priority 2008, published 2011).

Molecules are shown by their SMILES. Structures can show the parent of a compound that is named as a salt.

Data set [1] is described as follows: Initial solubility assessment in solvents useful in making vaginal devices. The data set is classed as physicochemical. The source says:
Initial solubility assessments were made of Compounds 28A, 23 and 5L to evaluate compatibility in various solvents useful in making vaginal devices.

A further data set relates to HIV-1BaL. Kind of data set: microbe, parasite or virus in culture. Particulars: Human immunodeficiency virus 1, TZM-bl, read-out: Inhibition of HIV Infection (TZM-bL cells using luciferase reporter) IC50-RS. The format is cell-based. (In general: In a reporter assay the amount or activity of a reporter protein is the signal.)
Data set [2] in a line: Compound toxicity, MTT dye reduction. The format is cell-based. To be noted: human, TZM-bL cells, mean ± D (n independent experiments), read-out: Cytotoxicity CC50 (TZM-bL). As for the experimental part: Determination of compound toxicity. The viability of cells (TZM-bI) and following treatment with the compound was determined by the principle of MTT dye reduction (see references cited in Fletcher et. al.). All data are expressed as the percentage of viability for compound-treated wells compared to untreated cell control wells, and the 50% cytotoxic concentration (CC50) is defined as the concentration of the drug at which the cell/tissue viability was reduced to 50% of the drug-free control value.
For orientation: Tetrazolium assays rely on reduction of a dye to a coloured formazan, in cell work by metabolically active cells.

Data set [3] can be described thus: Thermogravimetric analysis (TGA), thermal stability. The data set is classed as physicochemical. How it is done: Thermogravimetric analysis (TGA) was conducted with a TGA Q500 from TA instruments. A typical experiment involved heating the material in a platinum pan under a nitrogen purge from 25° C. to 350° C. at 10° C. per minute. Data was analyzed using the Universal using the Universal Analysis software program from TA Instruments.
Thermogravimetric analysis (TGA) was performed on each form to evaluate the thermal stability and presence of any volatiles in the sample (FIG. 3). The onset of thermal degradation is estimated using the derivative of weigh loss curve and was measured as 276° C. and 270° C. for forms 1 and 2 respectively.

A short description of data set [4]: Competition slurry experiment, relative thermodynamic stability of forms 1 and 2. The format is physicochemical. To be noted: slurry in 2-propanol and in MTBE, seeded with both forms, 1 week; PXRD and DSC. As for the experimental part: To assess the relative thermodynamic stability of forms 1 and 2, a competition slurry experiment was performed. In this experiment, the as received amorphous material was slurried in one vial containing 2-propanol and another containing MTBE. Seeds of both form 1 and form 2 were added to both vials and stirring continued for 1 week. The solid material was filtered from each vial and analyzed with PXRD and DSC.

By solubility is commonly meant the dissolved amount per volume that the medium holds. On to `CCC[C@@H](c1ccc(C(F)(F)F)cc1)N1CCN(C2(C)CCN(C(=O)c3c(C)ncnc3C)CC2)C[C@@H]1C` [Compound 28A], for which the “Solubility (percent in parentheses)” value is on record as not below 3.4% in data set [1] (PEG 400, 1.12 g/cm^3) and not below 3.6% in data set [1] (PG (propyleneglycol), 1.038 g/cm^3). Further, the solubility in data set [1] (organic solvent or mixture, PEG 400) is not below 39 mg/mL; in data set [1] (organic solvent or mixture, PG (propyleneglycol)) it was not below 38.4 mg/mL; in data set [1] (pH 4.4, aqueous buffer, pH 4.4 citrate buffer), not below 11.4 mg/mL; in data set [1] (pH 7.5, aqueous buffer, pH 7.5 phosphate buffer) it was less than 0.33 mg/mL; in data set [1] (water, DI H20) it was not below 3.85 mg/mL.
For orientation: IC50 means the point on the concentration scale where inhibition reaches its midpoint. In general, CC50 refers to the concentration that lowers cell viability or growth by half. Regarding `CO/N=C(\c1ccc(Br)cc1)C1CCN(C2(C)CCN(C(=O)c3c(C)ncnc3C)CC2)CC1` [Compound 5L Tartrate], in the data set on HIV-1BaL, the IC50 was 0.119 ± 0.0924 µM. Besides, the CC50 in data set [2] came to 476 ± 117 µM.
Take `CO/N=C(\c1ccc(Br)cc1)C1CCN(C2(C)CCN(C(=O)c3c(C)ncnc3C)CC2)CC1` [form 1]: in data set [3], the “onset of thermal degradation” value was 276 °C. In addition, the “relative thermodynamic stability of forms 1 and 2” value in data set [4] is “more thermodynamically stable form”.
